Source: patent US6706663B2, “Herbicidal 3-heterocyclic substituted benzisothiazole and benzisoxazole compounds” (Wyeth, priority 2000, dated 2004)

Experiments:
[1] = system: MOOVA (Monochoria vaginalis); assay: Flooded paddy, preemergence weed control; type: in vivo, Presl.; details: rated 3-4 weeks after treatment, 0-9 rating scale
How it was run: (§1)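 In this preemergence paddy assay, weed seeds or organs are sown at up to 0.5 cm in silt loam and covered by 1.5–3 cm of water for the full test period. After treatment the pots are kept in a greenhouse, and herbicidal effect is rated 0-9 visually against a control.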

[2] = system: IPOHE (Ipomoea hederacea); assay: Preemergence herbicidal evaluation; type: in vivo, (L.) Jacq.; details: rated 4-5 weeks after treatment
[3] = system: ZEAMX (Corn, Field); assay: Postemergence herbicidal evaluation; type: in vivo, Zea mays, L.; details: postemergence
How it was run: (§2)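 Seedlings grown for about two weeks were sprayed postemergence and then kept under standard greenhouse care. Injury was rated visually 4–5 weeks after treatment on a 0–9 scale against untreated controls, and ratings from repeat tests were averaged.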

[4] = system: ECHCG (Echinochloa crus-galli); assay: Preemergence herbicidal evaluation; type: in vivo, (L.) Beau; details: rated 4-5 weeks after treatment
How it was run: (§3)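 Test compound is applied in aqueous acetone to cups just after seeding. Cups are watered and maintained on greenhouse benches. Each cup is scored 0–9 by eye relative to a control after four to five weeks.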

[5] = system: SETVI (Setaria viridis); assay: Preemergence herbicidal evaluation; type: in vivo, (L.) Beau; details: rated 4-5 weeks after treatment
How it was run: as §3

[6] = system: GALAP (Galium aparine); assay: Postemergence herbicidal evaluation; type: in vivo; details: postemergence
How it was run: as §2

[7] = system: CHEAL (Chenopodium album); assay: Preemergence herbicidal evaluation; type: in vivo, L.; details: rated 4-5 weeks after treatment
How it was run: as §3

[8] = system: CASOB (Cassia obtusifolia); assay: Preemergence herbicidal evaluation; type: in vivo, L.; details: rated 4-5 weeks after treatment
How it was run: as §3

[9] = system: AMBEL (Ambrosia artemisifolia); assay: Preemergence herbicidal evaluation; type: in vivo, L.; details: rated 4-5 weeks after treatment
How it was run: as §3

[10] = system: ABUTH (Abutilon theophrasti); assay: Postemergence herbicidal evaluation; type: in vivo, Medic.; details: postemergence
How it was run: as §2

[11] = system: IPOHE (Ipomoea hederacea); assay: Postemergence herbicidal evaluation; type: in vivo, (L.) Jacq.; details: postemergence
How it was run: as §2

[12] = system: SETVI (Setaria viridis); assay: Postemergence herbicidal evaluation; type: in vivo, (L.) Beau; details: postemergence
How it was run: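 Seedlings grown about two weeks were sprayed with compound in 50/50 acetone/water containing 0.5% TWEEN 20, at about 0.0040 to 1.000 kg/ha via nozzle at 40 psi. Plants were kept under greenhouse conditions and visually rated on a 0-9 scale versus control four to five weeks after treatment; replicate tests averaged.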

[13] = system: ECHORC (Echinochloa oryzoides); assay: Flooded paddy, preemergence weed control; type: in vivo, Echinochloa oryzoides (Ard.) Fritsch.; details: rated 3-4 weeks after treatment, 0-9 rating scale
How it was run: as §1

[14] = system: ORYSAT (Rice, Tebonnet); assay: Flooded paddy, post-transplant rice tolerance; type: in vivo, Oryza sativa, (L.) Tebonnet; details: flooded paddy, post-transplant rice, rated 3-4 weeks after treatment, 0-9 rating scale
How it was run: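 Seedlings aged ten days are transplanted in pairs into undrained pots of silt loam, which are then flooded to a depth of 1.5 to 3 cm. After herbicide application the pots are kept in a greenhouse with the flood maintained. Plants are rated 0-9 by visual comparison with controls.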

[15] = system: SAGPY (Sagittaria pygmaea); assay: Flooded paddy, preemergence weed control; type: in vivo, L.; details: rated 3-4 weeks after treatment, 0-9 rating scale
How it was run: as §1

[16] = system: ORYSAT (Rice, Tebonnet); assay: Postemergence herbicidal evaluation; type: in vivo, Oryza sativa, (L.) Tebonnet; details: postemergence
How it was run: as §2

[17] = system: GLXMAW (Soybean, Williams); assay: Postemergence herbicidal evaluation; type: in vivo, Glycine max, (L.) Merr. cv Williams; details: postemergence
How it was run: as §2

[18] = system: CYPIR (Cyperus iria); assay: Flooded paddy, preemergence weed control; type: in vivo; details: rated 3-4 weeks after treatment, 0-9 rating scale
How it was run: as §1

[19] = system: ECHCG (Echinochloa crus-galli); assay: Postemergence herbicidal evaluation; type: in vivo, (L.) Beau; details: postemergence
How it was run: as §2

[20] = system: ORYSAT (Rice, Tebonnet); assay: Preemergence herbicidal evaluation; type: in vivo, Oryza sativa, (L.) Tebonnet; details: rated 4-5 weeks after treatment
[21] = preemergence, rate 0.0620 kg/ha
[22] = preemergence, rate 0.1250 kg/ha
[23] = preemergence, rate 0.2500 kg/ha

CSCC1COC(c2nsc3ccc(-n4c(=O)cc(C(F)(F)F)n(C)c4=O)cc23)O1 (stereo not drawn) [Compound 84, 1-methyl-3-[3-[4-[(methylthio)methyl]-1,3-dioxolan-2-yl]-1,2-benzisothiazol-5-yl]-6-(trifluoromethyl)uracil]
herbicidal rating, MOOVA ([1]; rate 0.0080 kg/ha): 9.0
herbicidal rating, MOOVA ([1]; rate 0.0320 kg/ha): 9.0
herbicidal rating, MOOVA ([1]; rate 0.1250 kg/ha): 9.0
Preemergence herbicidal rating IPOHE [2, 21]: 6.3
Preemergence herbicidal rating IPOHE [2, 22]: 8.3
Preemergence herbicidal rating IPOHE [2, 23]: 9.0
ZEAMX herbicidal rating ([3]; rate 0.0320 kg/ha): 4.8
ZEAMX herbicidal rating ([3]; rate 0.0620 kg/ha): 6.0
ZEAMX herbicidal rating ([3]; rate 0.1250 kg/ha): 8.5
Preemergence herbicidal rating ECHCG [4, 21]: 4.0
Preemergence herbicidal rating ECHCG [4, 22]: 6.7
Preemergence herbicidal rating ECHCG [4, 23]: 9.0
Preemergence herbicidal rating SETVI [5, 21]: 3.5
Preemergence herbicidal rating SETVI [5, 22]: 7.5
Preemergence herbicidal rating SETVI [5, 23]: 9.0
GALAP herbicidal rating ([6]; rate 0.0320 kg/ha): 6.5
GALAP herbicidal rating ([6]; rate 0.0620 kg/ha): 7.5
GALAP herbicidal rating ([6]; rate 0.1250 kg/ha): 9.0
Preemergence herbicidal rating CHEAL [7, 21]: 9.0
Preemergence herbicidal rating CHEAL [7, 22]: 9.0
Preemergence herbicidal rating CHEAL [7, 23]: 9.0
Preemergence herbicidal rating CASOB [8, 21]: 4.0
Preemergence herbicidal rating CASOB [8, 22]: 8.0
Preemergence herbicidal rating CASOB [8, 23]: 9.0
Preemergence herbicidal rating AMBEL [9, 21]: 9.0
Preemergence herbicidal rating AMBEL [9, 22]: 9.0
Preemergence herbicidal rating AMBEL [9, 23]: 9.0
ABUTH herbicidal rating ([10]; rate 0.0320 kg/ha): 9.0
ABUTH herbicidal rating ([10]; rate 0.0620 kg/ha): 9.0
ABUTH herbicidal rating ([10]; rate 0.1250 kg/ha): 9.0
IPOHE herbicidal rating ([11]; rate 0.0320 kg/ha): 9.0
IPOHE herbicidal rating ([11]; rate 0.0620 kg/ha): 9.0
IPOHE herbicidal rating ([11]; rate 0.1250 kg/ha): 9.0
SETVI herbicidal rating ([12]; rate 0.0320 kg/ha): 6.0
SETVI herbicidal rating ([12]; rate 0.0620 kg/ha): 9.0
herbicidal rating, ECHORC ([13]; rate 0.0080 kg/ha): 0.0
herbicidal rating, ECHORC ([13]; rate 0.0320 kg/ha): 7.5
herbicidal rating, ECHORC ([13]; rate 0.1250 kg/ha): 8.0
herbicidal rating, ORYSAT (rice tolerance) ([14]; rate 0.0080 kg/ha): 0.0
herbicidal rating, ORYSAT (rice tolerance) ([14]; rate 0.0320 kg/ha): 1.5
herbicidal rating, ORYSAT (rice tolerance) ([14]; rate 0.1250 kg/ha): 5.5
herbicidal rating, SAGPY ([15]; rate 0.0080 kg/ha): 0.0
herbicidal rating, SAGPY ([15]; rate 0.0320 kg/ha): 0.0
herbicidal rating, SAGPY ([15]; rate 0.1250 kg/ha): 4.0
ORYSAT herbicidal rating ([16]; rate 0.0320 kg/ha): 5.3
ORYSAT herbicidal rating ([16]; rate 0.0620 kg/ha): 6.5
ORYSAT herbicidal rating ([16]; rate 0.1250 kg/ha): 9.0
GLXMAW herbicidal rating ([17]; rate 0.0320 kg/ha): 8.5
GLXMAW herbicidal rating ([17]; rate 0.0620 kg/ha): 9.0
GLXMAW herbicidal rating ([17]; rate 0.1250 kg/ha): 9.0
herbicidal rating, CYPIR ([18]; rate 0.0080 kg/ha): 0.0
herbicidal rating, CYPIR ([18]; rate 0.0320 kg/ha): 1.5
herbicidal rating, CYPIR ([18]; rate 0.1250 kg/ha): 6.0
ECHCG herbicidal rating ([19]; rate 0.0320 kg/ha): 4.5
ECHCG herbicidal rating ([19]; rate 0.0620 kg/ha): 6.5
ECHCG herbicidal rating ([19]; rate 0.1250 kg/ha): 9.0
Preemergence herbicidal rating ORYSAT [20, 21]: 2.5
Preemergence herbicidal rating ORYSAT [20, 22]: 3.5
Preemergence herbicidal rating ORYSAT [20, 23]: 6.0

Cn1c(C(F)(F)F)cc(=O)n(-c2ccc3snc(C4=NCCO4)c3c2)c1=O [Compound 75, 1-methyl-3-[3(2-oxazolin-2-yl)-1,2-benzisothiazol-5-yl]-6-(trifluoromethyl)uracil]
herbicidal rating, MOOVA ([1]; rate 0.0080 kg/ha): 0.0
herbicidal rating, MOOVA ([1]; rate 0.0320 kg/ha): 7.0
herbicidal rating, MOOVA ([1]; rate 0.1250 kg/ha): 9.0
Preemergence herbicidal rating IPOHE ([2]; Rate 0.0620 kg/ha): 0.0
Preemergence herbicidal rating IPOHE ([2]; Rate 0.1250 kg/ha): 4.0
Preemergence herbicidal rating IPOHE ([2]; Rate 0.2500 kg/ha): 7.0
ZEAMX herbicidal rating ([3]; rate 0.0320 kg/ha): 4.5
ZEAMX herbicidal rating ([3]; rate 0.0620 kg/ha): 5.0
Preemergence herbicidal rating ECHCG ([4]; Rate 0.0620 kg/ha): 0.0
Preemergence herbicidal rating ECHCG ([4]; Rate 0.1250 kg/ha): 1.0
Preemergence herbicidal rating ECHCG ([4]; Rate 0.2500 kg/ha): 6.0
Preemergence herbicidal rating SETVI ([5]; Rate 0.0620 kg/ha): 0.0
Preemergence herbicidal rating SETVI ([5]; Rate 0.1250 kg/ha): 1.0
Preemergence herbicidal rating SETVI ([5]; Rate 0.2500 kg/ha): 6.0
GALAP herbicidal rating ([6]; rate 0.0320 kg/ha): 5.0
GALAP herbicidal rating ([6]; rate 0.0620 kg/ha): 7.0
Preemergence herbicidal rating CHEAL ([7]; Rate 0.0620 kg/ha): 9.0
Preemergence herbicidal rating CHEAL ([7]; Rate 0.1250 kg/ha): 6.0
Preemergence herbicidal rating CHEAL ([7]; Rate 0.2500 kg/ha): 9.0
Preemergence herbicidal rating CASOB ([8]; Rate 0.0620 kg/ha): 0.0
Preemergence herbicidal rating CASOB ([8]; Rate 0.1250 kg/ha): 1.0
Preemergence herbicidal rating CASOB ([8]; Rate 0.2500 kg/ha): 1.0
Preemergence herbicidal rating AMBEL ([9]; Rate 0.0620 kg/ha): 1.0
Preemergence herbicidal rating AMBEL ([9]; Rate 0.1250 kg/ha): 3.0
Preemergence herbicidal rating AMBEL ([9]; Rate 0.2500 kg/ha): 7.0
ABUTH herbicidal rating ([10]; rate 0.0320 kg/ha): 9.0
ABUTH herbicidal rating ([10]; rate 0.0620 kg/ha): 9.0
IPOHE herbicidal rating ([11]; rate 0.0320 kg/ha): 9.0
IPOHE herbicidal rating ([11]; rate 0.0620 kg/ha): 9.0
SETVI herbicidal rating ([12]; rate 0.0320 kg/ha): 2.0
SETVI herbicidal rating ([12]; rate 0.0620 kg/ha): 4.0
herbicidal rating, ECHORC ([13]; rate 0.0080 kg/ha): 1.5
herbicidal rating, ECHORC ([13]; rate 0.0320 kg/ha): 4.0
herbicidal rating, ECHORC ([13]; rate 0.1250 kg/ha): 8.5
herbicidal rating, ORYSAT (rice tolerance) ([14]; rate 0.0080 kg/ha): 2.5
herbicidal rating, ORYSAT (rice tolerance) ([14]; rate 0.0320 kg/ha): 4.5
herbicidal rating, ORYSAT (rice tolerance) ([14]; rate 0.1250 kg/ha): 6.0
herbicidal rating, SAGPY ([15]; rate 0.0080 kg/ha): 0.0
herbicidal rating, SAGPY ([15]; rate 0.0320 kg/ha): 4.5
herbicidal rating, SAGPY ([15]; rate 0.1250 kg/ha): 9.0
ORYSAT herbicidal rating ([16]; rate 0.0320 kg/ha): 2.5
ORYSAT herbicidal rating ([16]; rate 0.0620 kg/ha): 3.5
GLXMAW herbicidal rating ([17]; rate 0.0320 kg/ha): 5.5
GLXMAW herbicidal rating ([17]; rate 0.0620 kg/ha): 7.0
herbicidal rating, CYPIR ([18]; rate 0.0080 kg/ha): 0.0
herbicidal rating, CYPIR ([18]; rate 0.0320 kg/ha): 7.0
herbicidal rating, CYPIR ([18]; rate 0.1250 kg/ha): 9.0
ECHCG herbicidal rating ([19]; rate 0.0320 kg/ha): 3.0
ECHCG herbicidal rating ([19]; rate 0.0620 kg/ha): 3.0
Preemergence herbicidal rating ORYSAT ([20]; Rate 0.0620 kg/ha): 0.0
Preemergence herbicidal rating ORYSAT ([20]; Rate 0.1250 kg/ha): 2.0
Preemergence herbicidal rating ORYSAT ([20]; Rate 0.2500 kg/ha): 7.0
